Measured values: PMC7970304, “The Effects of Apelin and Elabela Ligands on Apelin Receptor Distinct Signaling Profiles” (Frontiers in Pharmacology, 2021)

What was measured:
Format in all cases: cell-based
[1] = tested on: APJ (Apelin receptor); ERK1/2 phosphorylation; test: ERK1/2 activation assay, Western blot; details: for Bias factor / Log (Bias): WB-ERK over Ca2+, reference Apelin-13; for Log (Bias): footnote a = statistically insignificant; for log (τ/KA) / Δlog (τ/KA): WB-ERK; for log (τ/KA): Black–Leff operational model; for Δlog (τ/KA): relative to Apelin-13
Protocol: HEK293 cells expressing APJ were spilt into 6-well plates at a density of 10^5 cells per well and cultured until reaching approximately 90% confluence. The cells were treated with different concentrations of peptide ligands (0.01–1,000 nM). The cells were washed twice with Phosphate-buffered saline (PBS) and lyzed in RIPA lysis buffer (50 mm Tris–HCl, pH 7.41, 50 mM NaCl, 1 mM EDTA, 10 mM MgCl2, 1 mM DTT, 1 mM PMSF, 1 μg/ml […], […]), 1.4 μg/ml […] and 0.5% (v/v) NP-40). After centrifugation at 14,000 rpm at 4°C for 30 min, the supernatant was collected and separated by 10% SDS-PAGE. Gel transfer takes about 60 min at 250 mA. The nitrocellulose membrane was sealed with 5% skim milk dissolved in 0.1% Triton X-100 of PBS. The primary ERK1/2 antibody was diluted with 5% bovine serum albumin (BSA) at 1:2,000, and the second antibody was diluted with 1:5,000. The ECL reagent was applied to the membrane. The films were scanned by Vanoscan Lide 700F scanner and analyzed by scion image software. The dose-response curve was fitted using the data detected at 5 min after stimulation.
(§1) The concentration-response data for the ligands in various assays were analyzed to determine the biases of the ligands for G protein dependent signaling or β-arrestin dependent signaling, according to a previously published method ([Kenakin et al., 2012]; [Hager et al., 2016]; [Hothersall et al., 2017]). Briefly, the concentration-response data for each ligand were fitted to the Black–Leff operation model to obtain the values of τ and K A, using the following equation: Response=[A]^nτ^nEm/[A]^nτ^n+([A]KA)^n where [A] is the concentration of the agonist, E m is the maximal response of the system, n is the transducer slope, and K A and τ describe the affinity and efficacy of the agonist, respectively. In the data fitting, the reparametrized form of the equation proposed by [Kenakin et al. (2012)] was used: Response=Em/1+exp{nln[1+exp(β1)/[A]]−nβ2} where β 1 and β 2 are the natural logarithm of K A and τ, respectively, and E m was set to 1. Thus, for each concentration-response curve, a non-linear regression was performed to fit the above equation to give β 1 and β 2 (as well as n). Log (τ/K A) values (“transduction coefficients”) for each ligand vs. each pathway were obtained. […] The ΔΔlog (τ/K A), or Log (Bias), which is the logarithm of the bias factor for a given pathway over a reference pathway (here, intracellular calcium release), was calculated for each ligand as Δlog (τ/K A)–Δlog (τ/K A)Calcium. The 95% confidence interval (CI) was expressed as the mean ± standard error; Log (Bias) values, whose 95% CI crosses 0, were considered statistically insignificant.
The data were analyzed using GraphPad Prism v5.0. All the data are presented as the mean ± SEM. Differences between groups were compared by one-way analysis of variants (ANOVA), followed by post-hoc tests (Tukey’s test), When p < 0.05, the difference was considered significant. All experiments were repeated at least four times. The dose-response curves were generated using non-linear fitting model log (agonist) vs. response (three-parameters), with Hill Slope held to 1, i.e., Y = Bottom + (Top-Bottom)/(1 + 10^(LogEC50-X)).
FIGURE 4 Changes of ERK1/2 phosphorylation in HEK293 cells with stable expression of APJ: (A–F) after 5-min stimulation by the six agonists in different concentrations (0.01–1,000 nM) (G and H) ERK was measured after 5 or 15 min stimulation with six peptides at a concentration of 100 nM. Levels of p-ERK, total ERK were determined by Western blot. The data represent means ± SEM of four independent experiments.

[2] = tested on: β-arrestin 1–AP2 interaction induced by APJ; test: BRET interaction of β-arrestin 1 and β2-adaptin (AP2) induced by APJ; details: for log (τ/KA) / Δlog (τ/KA): APJ-β-arrestin1-AP2; for log (τ/KA): Black–Leff operational model; for Δlog (τ/KA): relative to Apelin-13; for Bias factor / Log (Bias): APJ-β-arrestin1-AP2 over Ca2+, reference Apelin-13; for Log (Bias): footnote a = statistically insignificant
Protocol: (§2) To detect the potencies of different peptide ligands for APJ in living cells, real-time kinetic bioluminescence resonance energy transfer (BRET) assays were carried out as follows. HEK293 cells were grown to 80–90% confluence in 24-well plates and transiently transfected with various Rluc-, EYFP-, or Venus-tagged constructs ([Chen et al., 2014]; [Liu et al., 2016]). Approximately 36 h after transfection, the long-acting luciferase substrate EnduRen (E6481, Promega, Beijing Biotech Co., Ltd.) was added to each well at a final concentration of 60 μM and cells were incubated for 2 h at 37°C in a 5% CO2 incubator. BRET experiments were carried out using a Mithras LB941 plate reader (Berthold Technologies, Bad Wildbad, Germany) with three filters: a Rluc filter (400–475 nm), a Venus filter (515–575 nm) and an EGFP filter (500–550 nm) ([Liu et al., 2016]; [Ji et al., 2017]). The BRET ratio was calculated as the ratio of the emission at 535 ± 30 nm to that at 485 ± 20 nm. The results are expressed as the mBRET (mBRET = 1,000 × BRET ratio) ([Pfleger et al., 2006a]; [Pfleger et al., 2006b]). We use high glucose as a negative control group.
(§3) HEK293 cells were transiently co-transfected with the designated Rluc and GFP2 or Venus or EYFP-labeled constructs. Twenty-four hours after transfection, the cells were harvested in phenol red free medium containing 5% FCS in HEPES buffer and seeded in 96 well white microplate coated with poly-D-lysine. After 24 h, cells were washed twice in PBS and re-suspended in PBS containing 0.5 mM MgCl2 and 0.1% glucose. Coelenterazine h substrate was added at a final concentration of 5 μM in the total volume of 50 μL/well. Kinetic-response and dose-response curve of the recruitment of GRKs or β-arrestin 1 and β-arrestin 2 or AP2 to the APJ by six peptides measured by BRET. […] The BRET signals between receptor and GRKs/β-arrestin1 and 2/AP2 were recorded at 10 min (GRK2/5) or 15 min (β-arrestin1 and) or 30 min (AP2) after agonist stimulation. We use high glucose as a control group. BRET assays were performed as described previously ([Xue et al., 2018]). […] This signal is defined as the ligand induced BRET ratio.
as §1
(§4) The data were analyzed using GraphPad Prism v5.0. All the data are presented as the mean ± SEM.

[3] = tested on: APJ–β-arrestin 2 interaction; test: BRET recruitment of β-arrestin 2 to APJ; details: for log (τ/KA): Black–Leff operational model; for Bias factor / Log (Bias): APJ-β-arrestin 2 over Ca2+, reference Apelin-13; for Log (Bias): footnote a = statistically insignificant
Protocol: as §2, §3, §1, §4

| Structure (SMILES) | Bias factor [1] | Log (Bias) [1] | log (τ/KA) [1] | Δlog (τ/KA) [1] | log (τ/KA) [2] | Δlog (τ/KA) [2] | Bias factor [2] | Log (Bias) [2] | Log (Bias) ([2]; listed as ELA-32) | bias over calcium release ([2]; β-arrestin 1–AP2) | log (τ/KA) ([3]; APJ-β-arrestin 2) | Bias factor [3] | Log (Bias) [3] | Log (Bias) ([3]; listed as ELA-32) | bias over calcium release ([3]; APJ–β-arrestin 2) | ERK1/2 phosphorylation (in words) ([1]; 100 nM, 15 min) | bias over calcium release ([1]; ERK pathway) | Δlog (τ/KA) ([3]; APJ-β-arrestin 2, relative to Apelin-13) |
| --- | --- | --- | --- | --- | --- | --- | --- | --- | --- | --- | --- | --- | --- | --- | --- | --- | --- | --- |
| CSCC[C@H](NC(=O)[C@@H](NC(=O)[C@H](CC(C)C)NC(=O)[C@H](CC(N)=O)NC(=O)[C@@H](NC(=O)[C@@H]1CCCN1C(=O)[C@H](CCCNC(=N)N)NC(=O)[C@@H](N)CCC(N)=O)C(C)C)[C@@H](C)O)C(=O)N[C@@H](CCCNC(=N)N)C(=O)N[C@@H](CCCNC(=N)N)C(=O)N[C@@H](CCCCN)C(=O)N[C@@H](CC(C)C)C(=O)N[C@@H](CCCNC(=N)N)C(=O)N[C@@H](CCCCN)C(=O)N[C@@H](Cc1c[nH]cn1)C(=O)N[C@@H](CC(N)=O)C(=O)N[C@H]1CSSC[C@@H](C(=O)N[C@@H](CCSC)C(=O)N2CCC[C@H]2C(=O)N[C@@H](CC(C)C)C(=O)N[C@@H](Cc2c[nH]cn2)C(=O)N[C@@H](CO)C(=O)N[C@@H](CCCNC(=N)N)C(=O)N[C@H](C(=O)N2CCC[C@H]2C(=O)N[C@@H](Cc2ccccc2)C(=O)N2CCC[C@H]2C(=O)O)C(C)C)NC(=O)[C@H](CCCNC(=N)N)NC(=O)[C@H](CCCNC(=N)N)NC(=O)[C@H](CCC(N)=O)NC(=O)[C@H](CC(C)C)NC1=O [Elabela-32] | 3.0 | 0.5 ± 0.3 | −1.3 ± 0.2 | −1.4 ± 0.2 | −0.1 ± 0.1 | 1.3 ± 0.2 | 1,580.1 | 3.2 | 3.2 ± 0.3 | > 1,500 fold | −0.4 ± 0.1 | 6,138.2 | 3.8 | 3.8 ± 0.2 | > 6,000 fold |  |  |  |
| CSCC[C@H](NC(=O)[C@@H]1CSSC[C@H](NC(=O)[C@H](CC(N)=O)NC(=O)[C@H](Cc2c[nH]cn2)NC(=O)[C@H](CCCCN)NC(=O)[C@H](CCCNC(=N)N)NC(=O)[C@@H](N)CC(C)C)C(=O)N[C@@H](CC(C)C)C(=O)N[C@@H](CCC(N)=O)C(=O)N[C@@H](CCCNC(=N)N)C(=O)N[C@@H](CCCNC(=N)N)C(=O)N1)C(=O)N1CCC[C@H]1C(=O)N[C@@H](CC(C)C)C(=O)N[C@@H](Cc1c[nH]cn1)C(=O)N[C@@H](CO)C(=O)N[C@@H](CCCNC(=N)N)C(=O)N[C@H](C(=O)N1CCC[C@H]1C(=O)N[C@@H](Cc1ccccc1)C(=O)N1CCC[C@H]1C(=O)O)C(C)C [Elabela-21] | 0.1 | −1.0 ± 0.3 | −2.5 ± 0.2 | −2.6 ± 0.2 | −1.9 ± 0.1 | −0.5 ± 0.2 | 13.2 | 1.1 ± 0.3 |  |  | −2.1 ± 0.1 | 73.6 | 1.9 ± 0.2 |  |  | significantly higher than the activation of ERK1/2 by the other ligands | 0.1 fold | 0.3 ± 0.1 |
